US11679111B2, “Fatty acid synthase inhibitors” (priority 2016, dated 2023)
Where two headings read alike, the source gives them in different places.

Legend:
[1] = in vivo; conditions: MMTV-Neu, mouse, 15 mg/kg, n=3
[2] = 15 mg/kg IP
[3] = biological target: T1, human FASN (Homo sapiens, UniProt P49327); test: FASN activity assay, 2-[14C] malonyl CoA incorporation into lipids by purified enzyme; assay type: biochemical
T1 construct: endogenous in cells; host or cells: BT474 cells; endogenous enzyme purified by ammonium sulfate cuts and Sephacryl S-300 gel filtration, about 85% pure
Experimental: Human FASN activity was measured by monitoring the incorporation of 2-[^14C] malonyl CoA into fatty acids using liquid scintillation counting by a method similar to the one described by Richardson et al (Richardson and Smith, 2007). FASN (10 μg/ml of PBS containing 1 mM DTT and 1 mM EDTA) was pre-incubated with different concentrations of HS-106 (final DMSO concentration 1%) at 37° C. for 30 minutes, then substrates were added (20 μM acetyl CoA and 200 μM NADPH) in a total reaction volume of 100 μl. The reaction was initiated by adding 10 μl of 50 μM malonyl CoA spiked with 0.05 μCi of 2-[^14C] malonyl CoA. After incubation for 30 minutes at 37° C., lipids were extracted 3 times with 150 μl (2:1, v/v) chloroform:methanol. Then, to the pooled organic phases, 1 ml of toluene containing 25 g/L Butyl-PBD was added and radioactivity was measured by liquid scintillation counting.
Confluent BT474 cells grown in high glucose DMEM with 10% FBS, were scraped and washed two times with ice cold PBS. […]
Human FASN activity was measured by monitoring the incorporation of 2-[^14C] […] Then, to the pooled organic phase, 1 ml of Toluene containing […] Butyl PBD was added and radioactivity was measured by scintillation counting. […]

[4] = tested on: HIV-1; test: HIV/TZM-bl assay, extracellular p24 ELISA; assay type: cell-based
Experimental: HS-106 or C75 were dissolved in DMSO to achieve 10 mM stock concentration. The stock solution of each drug was serially diluted 3-fold with DMSO and 2 μL of each dilution was added to each well to achieve final concentration range from 10 μM to 4.6 nM fixing final [DMSO] at 1%. HIVNL4.3 was added to 3×10^4 TZM-bl cells at 10 ng/ml p24 equivalents in the presence of 15 μg/mL DEAE dextran. HIV-infected cells were incubated at 37° C. in 5% CO2 for 24 hours, washed with PBS, fresh media was added, and cell were incubated for another 24 hours. Supernatants were collected and stored at −80° C. until P24 ELISA assay. HIV-1 replication was assessed by quantitative p24 ELISA. Nevirapine (positive control) was obtained from the AIDS Reagent Repository and was used at […].

[5] = tested on: MMTV-Neu model of HER2+ breast cancer; test: Efficacy in MMTV-Neu model of HER2+ breast cancer; assay type: in vivo, mice; conditions: 30 pmol/kg IP biweekly, vehicle 29 days
[6] = tested on: HepG2 cells; test: HepG2 cell viability (Resazurin); assay type: cell-based
Experimental: HepG2 cells were seeded in 96 well plates and after reaching 80% confluency, the cells were treated with different concentrations of HS-106 for 4 hours. At the end of the treatment time, 10 μl of 700 μM Resazurin (prepared with PBS) were added to each well. After 3 hours, the Resorufin fluorescence was measured at Ex/Em: 540/590 nm.

T1 sequence (P49327 whole entry): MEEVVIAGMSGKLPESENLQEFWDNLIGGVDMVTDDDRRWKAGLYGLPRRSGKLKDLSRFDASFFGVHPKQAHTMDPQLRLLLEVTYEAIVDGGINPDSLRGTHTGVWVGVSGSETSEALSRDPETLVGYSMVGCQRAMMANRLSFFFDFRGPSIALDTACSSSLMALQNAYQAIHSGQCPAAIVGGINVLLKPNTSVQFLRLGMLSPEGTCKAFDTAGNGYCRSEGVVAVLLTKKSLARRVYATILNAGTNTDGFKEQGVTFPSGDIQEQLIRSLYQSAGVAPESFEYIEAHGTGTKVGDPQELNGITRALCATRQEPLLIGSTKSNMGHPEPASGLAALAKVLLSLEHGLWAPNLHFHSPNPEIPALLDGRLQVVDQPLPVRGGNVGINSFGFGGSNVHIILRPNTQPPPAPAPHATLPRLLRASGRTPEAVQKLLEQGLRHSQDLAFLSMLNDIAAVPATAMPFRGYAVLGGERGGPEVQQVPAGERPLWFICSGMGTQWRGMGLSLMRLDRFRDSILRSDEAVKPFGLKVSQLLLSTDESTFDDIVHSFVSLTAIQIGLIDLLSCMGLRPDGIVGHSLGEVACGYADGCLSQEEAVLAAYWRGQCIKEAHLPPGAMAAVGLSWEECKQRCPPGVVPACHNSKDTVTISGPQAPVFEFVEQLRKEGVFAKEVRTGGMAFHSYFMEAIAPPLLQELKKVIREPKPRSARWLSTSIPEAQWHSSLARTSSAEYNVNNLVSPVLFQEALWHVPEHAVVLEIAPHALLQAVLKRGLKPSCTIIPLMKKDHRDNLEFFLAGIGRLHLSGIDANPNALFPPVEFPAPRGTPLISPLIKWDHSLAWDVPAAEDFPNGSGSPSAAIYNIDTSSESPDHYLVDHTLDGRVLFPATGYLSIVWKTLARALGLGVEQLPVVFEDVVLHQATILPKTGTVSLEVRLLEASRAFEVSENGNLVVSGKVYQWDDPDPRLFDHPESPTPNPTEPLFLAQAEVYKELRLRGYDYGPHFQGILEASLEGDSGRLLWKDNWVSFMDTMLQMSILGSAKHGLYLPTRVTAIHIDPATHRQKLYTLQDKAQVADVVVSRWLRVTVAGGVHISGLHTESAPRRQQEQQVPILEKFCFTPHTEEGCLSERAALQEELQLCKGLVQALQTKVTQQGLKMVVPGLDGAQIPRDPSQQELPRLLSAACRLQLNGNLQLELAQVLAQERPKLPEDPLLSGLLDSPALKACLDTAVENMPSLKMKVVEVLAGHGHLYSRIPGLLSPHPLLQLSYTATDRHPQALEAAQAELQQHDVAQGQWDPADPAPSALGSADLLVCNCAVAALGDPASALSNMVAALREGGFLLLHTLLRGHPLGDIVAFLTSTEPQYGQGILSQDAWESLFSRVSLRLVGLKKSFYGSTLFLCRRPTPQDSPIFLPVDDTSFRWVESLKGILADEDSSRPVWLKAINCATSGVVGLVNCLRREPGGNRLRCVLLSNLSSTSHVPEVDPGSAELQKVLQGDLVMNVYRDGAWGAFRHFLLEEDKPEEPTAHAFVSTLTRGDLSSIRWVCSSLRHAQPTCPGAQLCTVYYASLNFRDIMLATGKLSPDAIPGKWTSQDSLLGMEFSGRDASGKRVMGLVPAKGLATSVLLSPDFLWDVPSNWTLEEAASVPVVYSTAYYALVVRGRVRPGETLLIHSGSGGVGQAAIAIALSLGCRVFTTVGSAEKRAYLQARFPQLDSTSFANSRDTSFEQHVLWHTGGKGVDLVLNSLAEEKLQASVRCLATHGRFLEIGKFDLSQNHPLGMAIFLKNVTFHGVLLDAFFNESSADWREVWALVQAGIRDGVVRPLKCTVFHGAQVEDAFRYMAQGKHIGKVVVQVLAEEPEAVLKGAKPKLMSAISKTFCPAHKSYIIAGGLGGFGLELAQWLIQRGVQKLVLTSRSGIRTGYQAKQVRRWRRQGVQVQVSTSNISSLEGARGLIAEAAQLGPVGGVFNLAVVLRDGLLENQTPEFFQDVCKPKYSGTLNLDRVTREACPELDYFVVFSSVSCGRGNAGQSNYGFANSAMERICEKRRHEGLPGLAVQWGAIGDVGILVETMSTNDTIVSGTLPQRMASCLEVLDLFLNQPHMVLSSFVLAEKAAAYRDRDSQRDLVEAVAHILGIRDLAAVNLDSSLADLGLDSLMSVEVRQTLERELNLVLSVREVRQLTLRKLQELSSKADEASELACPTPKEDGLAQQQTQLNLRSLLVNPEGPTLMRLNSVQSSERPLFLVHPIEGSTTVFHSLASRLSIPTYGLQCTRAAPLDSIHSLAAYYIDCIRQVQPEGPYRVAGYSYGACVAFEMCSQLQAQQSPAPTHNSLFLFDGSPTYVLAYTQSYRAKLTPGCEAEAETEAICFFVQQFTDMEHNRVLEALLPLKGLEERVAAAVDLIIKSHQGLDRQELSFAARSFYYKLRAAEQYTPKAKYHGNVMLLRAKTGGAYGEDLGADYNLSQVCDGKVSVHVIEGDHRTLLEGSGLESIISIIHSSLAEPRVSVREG

Cc1sc2ncnc(NC3CCN(Cc4ccccc4)C3)c2c1C (racemic) [HS-106, N-(1-benzylpyrrolidin-3-yI)-5,6-dimethylthieno[2,3-d]pyrimidin-4-amine]
half-life ([1]; T1/2 tumor tissue): 65.71 ± 0.32 min | half-life ([1]; ip, T1/2 kidney, 15 mg/kg IP): 9.9 ± 0.01 min | half-life ([1]; ip, T1/2 liver, 15 mg/kg IP): 9.84 ± 0.09 min | half-life ([1]; ip, T1/2 plasma, 15 mg/kg IP): 9.81 ± 0.02 min | time of appearance in plasma after IP injection [2]: ≤ 5 min | IC50 [3]: 3.71 µM | IC50 ([3]; FIG. 2E, read-out: IC50, native human FASN (purified)): 0.046 µM | EC50 ([4]; Human immunodeficiency virus 1, TZM-bl cells, 48 hours post infection, read-out: EC50, HIV-1 p24 production): 0.213 µM | antiviral index (TC50/EC50) ([4]; TZM-bl model): 47 | median survival [5]: 63 days | HepG2 cell viability [6]: without affecting the cell viability
